Where a SMILES comes first, the peptide text is derived from it. Bridges are numbered along the chain shown (N, C = ends). [ ]: non-standard residue; d: D form. The star is where a group is joined. d(aIle) = CC[C@H](C)[C@@H](N)C(=O)O; d(aThr) = C[C@@H](O)[C@@H](N)C(=O)O; Hexanoyl(5-Me) = CC(C)CCCC(=O)*; Orn = NCCC[C@H](N)C(=O)O; Dhb = C/C=C(\N)C(=O)O
What was measured:
Format in all cases: cell-based, human
A-549 = test: SRB colorimetric assay of cell growth and viability, A-549; settings: 48 hours exposure; for GI50: read-out: GI50 A-549; for CC50: read-out: LC50 A-549
Description: (§1) The finality of this assay is to interrupt the growth of a “in vitro” tumor cell culture by means a continued exhibition of the cells to the sample to be testing.
(§2) This form of the assay employs 96 well cell culture microplates of 9 mm diameter (Faircloth, 1988; Mosmann, 1983). Most of the cell lines are obtained from American Type Culture Collection (ATCC) derived from different human cancer types.
(§3) Cells are maintained in RPMI 1640 10% FBS, supplemented with 0.1 g/l penicillin and 0.1 g/l streptomycin sulfate and then incubated at 37° C., 5% CO2 and 98% humidity. For the experiments, cells were harvested from subconfluent cultures using trypsin and resuspended in fresh medium before plating.
(§4) Cells are seeded in 96 well microtiter plates, at 5×10^3 cells per well in aliquots of 195 μL medium, and they are allowed to attach to the plate surface by growing in drug free medium for 18 hours. Afterward, samples are added in aliquots of 5 μL in a ranging from 10 to 10^−8 μg/mL, dissolved in DMSO:EtOH:PBS (0.5:0.5:99). After 48 hours exposure, the antitumor effect are measured by the SRB methodology: cells are fixed by adding 50 μL of cold 50% (wt/vol) trichloroacetic acid (TCA) and incubating for 60 minutes at 4° C. Plates are washed with deionized water and dried. One hundred μL of SRB solution (0.4% wt/vol in 1% acetic acid) is added to each microtiter well and incubated for 10 minutes at room temperature. Unbound SRB is removed by washing with 1% acetic acid. Plates are air dried and bound stain is solubilized with Tris buffer. Optical densities are read on a automated spectrophotometric plate reader at a single wavelength of 490 nm.
(§5) The values for mean+/− SD of data from triplicate wells are calculated. Some parameters for cellular responses can be calculated: GI=growth inhibition, TGI=total growth inhibition (cytostatic effect) and LC=cell killing (cytotoxic effect).

IGROV-1 = test: SRB colorimetric assay of cell growth and viability, IGROV-1; settings: 48 hours exposure
Description: as §1, §2, §3, §4, §5

HeLa-APL = test: SRB colorimetric assay of cell growth and viability, HeLa-APL; settings: 48 hours exposure; for CC50: read-out: LC50 HELA-APL
Description: as §1, §2, §3, §4, §5

HeLa = test: SRB colorimetric assay of cell growth and viability, HeLa; settings: 48 hours exposure; for CC50: read-out: LC50 HELA
Description: as §1, §2, §3, §4, §5

LoVo = test: SRB colorimetric assay of cell growth and viability, LoVo; settings: 48 hours exposure; for CC50: read-out: LC50 LOVO
Description: as §1, §2, §3, §4, §5

HT-29 = test: SRB colorimetric assay of cell growth and viability, HT-29; settings: 48 hours exposure; for GI50: read-out: GI50 HT-29; for CC50: read-out: LC50 HT-29
Description: as §1, §2, §3, §4, §5

K-562 = test: SRB colorimetric assay of cell growth and viability, K-562; settings: 48 hours exposure; for CC50: read-out: LC50 K-562
Description: as §1, §2, §3, §4, §5

DU-145 = test: SRB colorimetric assay of cell growth and viability, DU-145; settings: 48 hours exposure
Description: as §1, §2, §3, §4, §5

PANC-1 = test: SRB colorimetric assay of cell growth and viability, PANC-1; settings: 48 hours exposure; for CC50: read-out: LC50 PANC-1
Description: as §1, §2, §3, §4, §5

IGROV-ET = test: SRB colorimetric assay of cell growth and viability, IGROV-ET; settings: 48 hours exposure; for CC50: read-out: LC50 IGROV-ET
Description: as §1, §2, §3, §4, §5

SK-MEL-28 = test: SRB colorimetric assay of cell growth and viability, SK-MEL-28; settings: 48 hours exposure; for CC50: read-out: LC50 MEL-28
Description: as §1, §2, §3, §4, §5

LoVo-Dox = test: SRB colorimetric assay of cell growth and viability, LoVo-Dox; settings: 48 hours exposure; for CC50: read-out: LC50 LOVO-DOX
Description: as §1
A colorimetric type of assay, using sulforhodamine B (SRB) reaction has been adapted for a quantitative measurement of cell growth and viability [following the technique described by Philip Skehan, et al. (1990), New colorimetric cytotoxicity assay for anticancer drug screening, J. Natl. Cancer Inst., 82:1107-1112].
as §2, §3, §4, §5

Row | Compound | TGI A-549 (A-549) | GI50 (A-549) | CC50 (A-549) | GI50 (IGROV-1) | LC50 (concentration causing 50% net cell killing) (IGROV-1) | TGI IGROV (IGROV-1) | GI50 (HeLa-APL) | TGI HELA-APL (HeLa-APL) | CC50 (HeLa-APL) | GI50 (HeLa) | TGI HELA (HeLa) | CC50 (HeLa) | GI50 (LoVo) | TGI LOVO (LoVo) | CC50 (LoVo) | TGI HT-29 (HT-29) | GI50 (HT-29) | CC50 (HT-29) | GI50 (K-562) | TGI K-562 (K-562) | also measured
1 | C/C=C1\NC(=O)[C@H](Cc2ccccc2)NC(=O)[C@@H](C(C)C)NC(=O)[C@@H]([C@@H](C)CC)NC(=O)[C@H](NC(=O)[C@H](NC(=O)[C@H](CCCN)NC(=O)[C@H]2CCCN2C(=O)[C@H](NC(=O)[C@@H](NC(=O)[C@@H](NC(=O)[C@@H](C)NC(=O)CCCC(C)C)[C@@H](C)O)C(C)C)C(C)C)[C@@H](C)CC)[C@@H](C)OC(=O)[C@H](C(C)C)NC1=O [Compound 34, [D-Ala^13]-KF] | 3.20E−06 Molar | 1.98 µM | 5.17 µM | 1.41 µM | 4.03 µM | 2.38E−06 Molar | 1.59 µM | 2.63E−06 Molar | 4.34 µM | 1.46 µM | 2.43E−06 Molar | 4.06 µM | 0.904 µM | 1.77E−06 Molar | 2.98 µM | 2.32E−06 Molar | 1.25 µM | 4.3 µM | 1.34 µM | 2.66E−06 Molar | CC50 (K-562): 5.25 µM; GI50 (DU-145): 2.21 µM; LC50 (concentration causing 50% net cell kill) (DU-145): 4.79 µM; TGI DU-145 (DU-145): 3.26E−06 Molar; GI50 (PANC-1): 1.28 µM; TGI PANC-1 (PANC-1): 2.58E−06 Molar; CC50 (PANC-1): 5.21 µM; GI50 (IGROV-ET): 1.58 µM; TGI IGROV-ET (IGROV-ET): 2.56E−06 Molar; CC50 (IGROV-ET): 4.14 µM; GI50 (SK-MEL-28): 1.81 µM; TGI MEL-28 (SK-MEL-28): 3.01E−06 Molar; CC50 (SK-MEL-28): 5 µM; GI50 (LoVo-Dox): 0.35 µM; TGI LOVO-DOX (LoVo-Dox): 9.73E−07 Molar; CC50 (LoVo-Dox): 2.48 µM
2 | C/C=C1\NC(=O)[C@H](Cc2ccccc2)NC(=O)[C@@H](C(C)C)NC(=O)[C@@H]([C@@H](C)CC)NC(=O)[C@H](NC(=O)[C@H](NC(=O)[C@H](CCCN)NC(=O)[C@H]2CCCN2C(=O)[C@H](NC(=O)[C@@H](NC(=O)[C@@H](NC(=O)[C@@H](CCC(N)=O)NC(=O)CCCC(C)C)[C@@H](C)O)C(C)C)C(C)C)[C@@H](C)CC)[C@@H](C)OC(=O)[C@H](C(C)C)NC1=O [Compound 40, [D-Gln^13]-KF] | 7.83E−07 Molar | 0.318 µM | 2.45 µM | 1.04 µM | 3.62 µM | 1.94E−06 Molar | 2.28 µM | 5.94E−06 Molar | 6.64 µM | 0.642 µM | 1.58E−06 Molar | 3.86 µM | 0.664 µM | 1.41E−06 Molar | 2.98 µM | 1.87E−06 Molar | 0.949 µM | 3.69 µM | 1.23 µM | 2.34E−06 Molar | CC50 (K-562): 4.42 µM; GI50 (DU-145): 1.79 µM; LC50 (concentration causing 50% net cell kill) (DU-145): 5.24 µM; TGI DU-145 (DU-145): 3.06E−06 Molar; GI50 (PANC-1): 0.13 µM; TGI PANC-1 (PANC-1): 3.01E−07 Molar; CC50 (PANC-1): 0.863 µM; GI50 (IGROV-ET): 1.31 µM; TGI IGROV-ET (IGROV-ET): 2.24E−06 Molar; CC50 (IGROV-ET): 3.79 µM; GI50 (SK-MEL-28): 1.22 µM; TGI MEL-28 (SK-MEL-28): 2.27E−06 Molar; CC50 (SK-MEL-28): 4.2 µM; GI50 (LoVo-Dox): 0.267 µM; TGI LOVO-DOX (LoVo-Dox): 8.23E−07 Molar; CC50 (LoVo-Dox): 2.23 µM
3 | C/C=C1\NC(=O)[C@H](Cc2ccccc2)NC(=O)[C@@H](C(C)C)NC(=O)[C@@H]([C@@H](C)CC)NC(=O)[C@H](NC(=O)[C@H](NC(=O)[C@H](CCCN)NC(=O)[C@H]2CCCN2C(=O)[C@H](NC(=O)[C@@H](NC(=O)[C@H](CC(C)C)NC(=O)CCCC(C)C)C(C)C)C(C)C)[C@@H](C)CC)[C@@H](C)OC(=O)[C@H](C(C)C)NC1=O [Compound 54, [Leu^12, noD-Val^13]-KF] ({Hexanoyl(5-Me)}-LV[dV][dP][Orn][d(aIle)][d(aThr)][d(aIle)][dV]F[Dhb]V; ester 7-C) | 2.19E−06 Molar | 1.14 µM | 4.23 µM | 1.11 µM | 3.92 µM | 2.09E−06 Molar | 1.08 µM | 2.04E−06 Molar | 3.88 µM | 0.841 µM | 1.73E−06 Molar | 3.54 µM | 1.08 µM | 2.14E−06 Molar | 4.21 µM | 3.51E−06 Molar | 1.88 µM | 6.55 µM | 1.31 µM | 2.40E−06 Molar | CC50 (K-562): 4.41 µM; GI50 (DU-145): 1.49 µM; LC50 (concentration causing 50% net cell kill) (DU-145): 4.61 µM; TGI DU-145 (DU-145): 2.62E−06 Molar; GI50 (PANC-1): 0.863 µM; TGI PANC-1 (PANC-1): 2.01E−06 Molar; CC50 (PANC-1): 4.68 µM; GI50 (IGROV-ET): 1.45 µM; TGI IGROV-ET (IGROV-ET): 2.57E−06 Molar; CC50 (IGROV-ET): 4.57 µM; GI50 (SK-MEL-28): 1.24 µM; TGI MEL-28 (SK-MEL-28): 2.20E−06 Molar; CC50 (SK-MEL-28): 3.9 µM; GI50 (LoVo-Dox): 1.55 µM; TGI LOVO-DOX (LoVo-Dox): 2.88E−06 Molar; CC50 (LoVo-Dox): 5.37 µM
